Source: US11530237B2, “Compositions and methods for treating CNS disorders” (Sage Therapeutics, Inc., priority 2014, dated 2022)

Target: [35S]-TBPS binding, rat brain cortical membranes
Assay: Steroid inhibition of TBPS binding ([35S]-TBPS radioligand displacement)
Details: 3 nM [35S]-TBPS, 5 μM GABA
Method: TBPS binding assays using rat brain cortical membranes in the presence of 5 μM GABA has been described (Gee et al, J. Pharmacol. Exp. Then 1987, 241, 346-353; Hawkinson et al, Mol. Pharmacol. 1994, 46, 977-985; Lewin, A. H et al., Mol. Pharmacol. 1989, 35, 189-194).
Briefly, cortices are rapidly removed following decapitation of carbon dioxide-anesthetized Sprague-Dawley rats (200-250 g). The cortices are homogenized in 10 volumes of […] using a glass/teflon homogenizer and centrifuged at 1500×g for 10 min at 4° C. The resultant supernatants are centrifuged at 10,000×g for 20 min at 4° C. to obtain the P2 pellets. The P2 pellets are resuspended in 200 mM NaCl/50 mM Na—K phosphate pH 7.4 buffer and centrifuged at 10,000×g for 10 min at 4° C. This washing procedure is repeated twice and the pellets are resuspended in 10 volumes of buffer. Aliquots (100 μL) of the membrane suspensions are incubated with 3 nM [^35S]-TBPS and 5 μL aliquots of test drug dissolved in dimethyl sulfoxide (DMSO) (final 0.5%) in the presence of 5 μM GABA. The incubation is brought to a final volume of 1.0 mL with buffer. […] Following a 90 min incubation at room temp, the assays are terminated by filtration through glass fiber filters (Schleicher and Schuell No. 32) using a cell harvester (Braudel) and rinsed three times with ice-cold buffer. Filter bound radioactivity is measured by liquid scintillation spectrometry. Non-linear curve fitting of the overall data for each drug averaged for each concentration is done using Prism (GraphPad).
Various compounds are or can be screened to determine their potential as modulators of [^35S]-TBPS binding in vitro. These assays are or can be performed in accordance with the above discussed procedures.

Row | Compound | IC50 [nM]
1 | CC(C(=O)[C@H]1CC[C@H]2[C@@H]3CC[C@@H]4C[C@](C)(O)CC[C@]4(C)[C@H]3CC[C@]12C)n1ccnn1 (stereo in doubt) [Compound 58, (R)-1-((3R,5R,8R,9S,10S,13S,14S,17S)-3-hydroxy-3,10,13-trimethylhexadecahydro-1H-cyclopenta[a]phenanthren-17-yl)-2-(1H-1,2,3-triazol-1-yl)propan-1-one] | > 500
2 | CC(C(=O)[C@H]1CC[C@H]2[C@@H]3CC[C@@H]4C[C@](C)(O)CC[C@]4(C)[C@H]3CC[C@]12C)n1nc2ccccc2n1 (stereo in doubt) [Compound 61, (S)-2-(2H-benzo[d][1,2,3]triazol-2-yl)-1-((3R,5R,8R,9S,10S,13S,14S,17S)-3-hydroxy-3,10,13-trimethylhexadecahydro-1H-cyclopenta[a]phenanthren-17-yl)propan-1-one] | 100 to 500
3 | CC(C(=O)[C@H]1CC[C@H]2[C@@H]3CC[C@@H]4C[C@](C)(O)CC[C@]4(C)[C@H]3CC[C@]12C)n1nnc2ccccc21 (stereo in doubt) [Compound 63, (S)-2-(1H-benzo[d][1,2,3]triazol-1-yl)-1-((3R,5R,8R,9S,10S,13S,14S,17S)-3-hydroxy-3,10,13-trimethylhexadecahydro-1H-cyclopenta[a]phenanthren-17-yl)propan-1-one] | 10 to 50
4 | C[C@@]1(O)CC[C@@]2(C)C(CC[C@H]3[C@@H]4CC[C@H](C(=O)Cn5nc6ccc(S(C)(=O)=O)cc6n5)[C@@]4(C)CC[C@@H]32)C1 (stereo in doubt) [Compound 104, 1-((3R,5R,8R,9S,10S,13S,14S,17S)-3-hydroxy-3,10,13-trimethylhexadecahydro-1H-cyclopenta[a]phenanthren-17-yl)-2-(5-(methylsulfonyl)-2H-benzo[d][1,2,3]triazol-2-yl)ethanone] | < 10
5 | C[C@@]1(O)CC[C@@]2(C)[C@H](CC[C@@H]3[C@@H]2CC[C@]2(C)[C@@H](C(=O)Cn4cc(C#N)cn4)CC[C@@H]32)C1 [Compound 10, 1-(2-((3R,5R,8R,9S,10S,13S,14S,17S)-3-hydroxy-3,10,13-trimethylhexadecahydro-1H-cyclopenta[a]phenanthren-17-yl)-2-oxoethyl)-1H-pyrazole-4-carbonitrile] | < 10
6 | C[C@@]1(O)CC[C@@]2(C)[C@H](CC[C@@H]3[C@@H]2CC[C@]2(C)[C@@H](C(=O)CN4CCOCC4)CC[C@@H]32)C1 [Compound 43, 1-((3R,5R,8R,9S,10S,13S,14S,17S)-3-hydroxy-3,10,13-trimethylhexadecahydro-1H-cyclopenta[a]phenanthren-17-yl)-2-morpholinoethanone] | 100 to 500
7 | C[C@@H](C(=O)[C@H]1CC[C@H]2[C@@H]3CC[C@@H]4C[C@](C)(O)CC[C@]4(C)[C@H]3CC[C@]12C)n1nccn1 [Compound 57, (S)-1-((3R,5R,8R,9S,10S,13S,14S,17S)-3-hydroxy-3,10,13-trimethylhexadecahydro-1H-cyclopenta[a]phenanthren-17-yl)-2-(2H-1,2,3-triazol-2-yl)propan-1-one] | 100 to 500
8 | C[C@@H](C(=O)[C@H]1CC[C@H]2[C@@H]3CC[C@@H]4C[C@](C)(O)CC[C@]4(C)[C@H]3CC[C@]12C)n1ccnn1 [Compound 59, (S)-1-((3R,5R,8R,9S,10S,13S,14S,17S)-3-hydroxy-3,10,13-trimethylhexadecahydro-1H-cyclopenta[a]phenanthren-17-yl)-2-(1H-1,2,3-triazol-1-yl)propan-1-one] | 100 to 500
9 | C[C@H](C(=O)[C@H]1CC[C@H]2[C@@H]3CC[C@@H]4C[C@](C)(O)CC[C@]4(C)[C@H]3CC[C@]12C)n1nc2ccccc2n1 [Compound 60, (R)-2-(2H-benzo[d][1,2,3]triazol-2-yl)-1-((3R,5R,8R,9S,10S,13S,14S,17S)-3-hydroxy-3,10,13-trimethylhexadecahydro-1H-cyclopenta[a]phenanthren-17-yl)propan-1-one] | 10 to 50
10 | C[C@H](C(=O)[C@H]1CC[C@H]2[C@@H]3CC[C@@H]4C[C@](C)(O)CC[C@]4(C)[C@H]3CC[C@]12C)n1nnc2ccccc21 [Compound 62, (R)-2-(1H-benzo[d][1,2,3]triazol-1-yl)-1-((3R,5R,8R,9S,10S,13S,14S,17S)-3-hydroxy-3,10,13-trimethylhexadecahydro-1H-cyclopenta[a]phenanthren-17-yl)propan-1-one] | 100 to 500
11 | C[C@H](C(=O)[C@H]1CC[C@H]2[C@@H]3CC[C@@H]4C[C@](C)(O)CC[C@]4(C)[C@H]3CC[C@]12C)n1cc(C#N)cn1 [Compound 72, 1-((R)-1-((3R,5R, 8R, 9S, 10S, 13S, 14S, 17S)-3-hydroxy-3,10,13-trimethylhexadecahydro-1H-cyclopenta[a]phenanthren-17-yl)-1-oxopropan-2-yl)-1H-pyrazole-4-carbonitrile] | 10 to 50
12 | C[C@@H](C(=O)[C@H]1CC[C@H]2[C@@H]3CC[C@@H]4C[C@](C)(O)CC[C@]4(C)[C@H]3CC[C@]12C)n1cc(C#N)cn1 [Compound 73, 1-((S)-1-((3R,5R,8R,9S,10S,13S,14S,17S)-3-hydroxy-3,10,13-trimethylhexadecahydro-1H-cyclopenta[a]phenanthren-17-yl)-1-oxopropan-2-yl)-1H-pyrazole-4-carbonitrile] | 10 to 50
13 | C[C@H](C(=O)[C@H]1CC[C@H]2[C@@H]3CC[C@H]4C[C@](C)(O)CC[C@]4(C)[C@H]3CC[C@]12C)n1cc(C#N)cn1 [Compound 80, 1-((R)-1-((3R,5S,8R,9S,10S,13S,14S,17S)-3-hydroxy-3,10,13-trimethylhexadecahydro-1H-cyclopenta[a]phenanthren-17-yl)-1-oxopropan-2-yl)-1H-pyrazole-4-carbonitrile] | 100 to 500
14 | C[C@@H](C(=O)[C@H]1CC[C@H]2[C@@H]3CC[C@H]4C[C@](C)(O)CC[C@]4(C)[C@H]3CC[C@]12C)n1cc(C#N)cn1 [Compound 81, 1-((S)-1-((3R,5S,8R,9S,10S,13S,14S,17S)-3-hydroxy-3,10,13-trimethylhexadecahydro-1H-cyclopenta[a]phenanthren-17-yl)-1-oxopropan-2-yl)-1H-pyrazole-4-carbonitrile] | 10 to 50
15 | CN(C)C(=O)c1cnn(CC(=O)[C@H]2CC[C@H]3[C@@H]4CC[C@@H]5C[C@](C)(O)CC[C@]5(C)[C@H]4CC[C@]23C)c1 [Compound 86] | < 10
16 | C[C@H](C(=O)[C@H]1CC[C@H]2[C@@H]3CC[C@H]4C[C@](C)(O)CC[C@]4(C)[C@H]3CC[C@]12C)n1nccn1 [Compound 90, (R)-1-((3R,5S,8R,9S,10S,13S,14S,17S)-3-hydroxy-3,10,13-trimethylhexadecahydro-1H-cyclopenta[a]phenanthren-17-yl)-2-(2H-1,2,3-triazol-2-yl)propan-1-one] | > 500
17 | C[C@@H](C(=O)[C@H]1CC[C@H]2[C@@H]3CC[C@H]4C[C@](C)(O)CC[C@]4(C)[C@H]3CC[C@]12C)n1nccn1 [Compound 91, (S)-1-((3R,5S,8R,9S,10S,13S,14S,17S)-3-hydroxy-3,10,13-trimethylhexadecahydro-1H-cyclopenta[a]phenanthren-17-yl)-2-(2H-1,2,3-triazol-2-yl)propan-1-one] | 50 to 100
